{
  "source": "patent US20160009755A1",
  "about": "“CYRRHETINIC ALKYL ESTERS AND PROTECTED DERIVATIVES THEREOF” (priority 2013, published 2016)",
  "tested_on": "secreted IL-8 in normal human epidermal keratinocytes (NHEK)",
  "test": "IL-8 secretion in PMA-stimulated NHEK (anti-inflammatory test)",
  "assay_type": "cell-based",
  "protocol": "In an exemplary test, NHEK were cultured in a medium for 24 hours. […] Then the culture medium was removed and replaced with another culture medium containing or not (control) the […] methyl ester or the reference compound and containing an inflammatory inducer (PMA) and the cells were incubated for 24 hours. A control without inducer was performed in parallel. After incubation, the culture supernatants were collected in order to measure the quantity of secreted IL-8.",
  "data": [
    {"smiles": "COC(=O)[C@@]1(C)CC[C@]2(C)CC[C@]3(C)C(=CC(=O)[C@@H]4[C@@]5(C)CC[C@H](O)C(C)(C)[C@@H]5CC[C@]43C)[C@@H]2C1", "note": "[Cyrrhetinic methyl ester, cyrrhetinic methyl ester]", "values": [
      {"measurement": "% Stimulated Control", "setting": "15.625 μM", "value": 42, "unit": "%"},
      {"measurement": "Avg. IL-8", "setting": "15.625 μM", "value": 1349, "unit": "pg/mL"},
      {"measurement": "% Stimulated Control", "setting": "31.25 μM", "value": 28, "unit": "%"},
      {"measurement": "Avg. IL-8", "setting": "31.25 μM", "value": 907, "unit": "pg/mL"},
      {"measurement": "% Stimulated Control", "setting": "62.5 μM", "value": 28, "unit": "%"},
      {"measurement": "Avg. IL-8", "setting": "62.5 μM", "value": 902, "unit": "pg/mL"},
      {"measurement": "% Inhibition", "setting": "IL-8 secretion, 15.625 μM", "value": 59, "unit": "%"},
      {"measurement": "% Inhibition", "setting": "IL-8 secretion, 31.25 μM", "value": 73, "unit": "%"},
      {"measurement": "% Inhibition", "setting": "IL-8 secretion, 62.5 μM", "value": 73, "unit": "%"},
      {"measurement": "inhibition of IL-8 secretion", "setting": "maximum over tested concentrations (up to)", "value": "≤ 73", "unit": "%"}
    ]},
    {"smiles": "CN[C@@H]1C[C@H]2O[C@@](C)([C@@H]1OC)n1c3ccccc3c3c4c(c5c6ccccc6n2c5c31)C(=O)NC4", "note": "[Staurosporine, staurosporine]", "values": [
      {"measurement": "% Stimulated Control", "setting": "10^−9M", "value": 18, "unit": "%"},
      {"measurement": "Avg. IL-8", "setting": "10^−9M", "value": 588, "unit": "pg/mL"}
    ]},
    {"smiles": "CC1(C)[C@@H](O)CC[C@]2(C)[C@H]3C(=O)C=C4[C@@H]5C[C@@](C)(C(=O)O)CC[C@]5(C)CC[C@@]4(C)[C@]3(C)CC[C@@H]12", "note": "[Glycyrrhetinic acid, glycyrrhetinic acid]", "values": [
      {"measurement": "% Stimulated Control", "setting": "0.5 μM", "value": 95, "unit": "%"},
      {"measurement": "Avg. IL-8", "setting": "0.5 μM", "value": 3037, "unit": "pg/mL"},
      {"measurement": "% Stimulated Control", "setting": "1 μM", "value": 108, "unit": "%"},
      {"measurement": "Avg. IL-8", "setting": "1 μM", "value": 3470, "unit": "pg/mL"},
      {"measurement": "% Stimulated Control", "setting": "2 μM", "value": 139, "unit": "%"},
      {"measurement": "Avg. IL-8", "setting": "2 μM", "value": 4450, "unit": "pg/mL"},
      {"measurement": "inhibition at 0.5 µM", "setting": "Homo sapiens, IL-8 secretion, 0.5 μM", "value": 5, "unit": "%"},
      {"measurement": "inhibition at 1 µM", "setting": "Homo sapiens, IL-8 secretion, 1 μM", "value": -9, "unit": "%"},
      {"measurement": "inhibition at 2 µM", "setting": "Homo sapiens, IL-8 secretion, 2 μM", "value": -40, "unit": "%"}
    ]}
  ]
}
